Assay results: EP1509215B1, “TREATMENT OR PREVENTION OF UROGENITAL ATROPHY AND ITS SYMPTOMS IN WOMEN” (Hormos Medical Ltd., priority 2002, dated 2003)

Legend:
[1] = tested on: vaginal epithelium; test: Cervical smear: maturity index / karyopyknosis index of the vaginal epithelium, clinical phase I-II study; conditions: for Change in maturity index for superficial cells (MI3 mean) / Change in maturity index for parabasal cells (MI1 mean): after 3 months; for Change in maturity index for superficial cells (MI3 mean): index 100 full estrogen, index 0 no estrogenicity; for Change in maturity index for parabasal cells (MI1 mean): index 100 no estrogenicity, index 0 full estrogen; for increase in the karyopyknosis index for superficial cells: 12 weeks; for change from baseline to post-treatment in the karyopyknosis index for superficial cells: individuals, start to 12 weeks, ospemifene 30, 60, 90 mg daily, raloxifene 60 mg daily, result in words
Procedure: Tolerability and pharmacokinetics were also assessed. Raloxifene (60 mg daily) was used as reference. Ospemifene was given perorally at the doses of 30, 60 and 90 mg daily. There were 29 volunteers at each dose level, as well as in the raloxifene group. Ospemifene was administered in gelatine capsules containing either 30, 60 or 90 mg of ospemifene. […] The vaginal epithelium was assessed by karyopyknosis index which is a well known assessment method among the skilled persons. In this method, the vaginal fraction of the cervical smears is estimated as the percentage of the number of cells from different layers: the parabasal cell layer; the intermediate cell layer; and the superficial cell layer. Estrogenicity is seen by a shift towards superficial cell fraction. In postmenopausal women this fraction usually is close to zero and estradiol treatment increases the fraction close to 100. Samples were taken before and after the treatment (at 3 months).
Table 1. […] (MI 1: index 100 no estrogenicity; index 0 full estrogen, and MI 3: index 100 full estrogen; index 0 no estrogenicity).

[2] = tested on: endometrium; test: Thickness of the endometrium by ultrasonography, clinical phase I-II study; type: in vivo, healthy postmenopausal female volunteers; conditions: for increase in the thickness of the endometrium (average): 3 months, statistically not significant
Procedure: (§1) A clinical phase I-II study was carried out to study the effects of ospemifene on endometrial thickness, endometrial pathology, (biopsy taken by curettage as described by Vuopala et al, 1982) and cervical smear in healthy postmenopausal female volunteers in the age range 55 to 69 years. Tolerability and pharmacokinetics were also assessed. Raloxifene (60 mg daily) was used as reference. Ospemifene was given perorally at the doses of 30, 60 and 90 mg daily. […] Ospemifene was administered in gelatine capsules containing either 30, 60 or 90 mg of ospemifene.
(§2) This effect is clearly weaker than that seen with estrogen replacement therapy. […] The measured values were always smaller than 8 mm, which is considered to be a thickness which is indicative for a physiologically significant estrogenicity of SERMs like tamoxifen (Hann et al, 1997; Lahti et al, 1993).

[3] = tested on: endometrium; test: Endometrial histology (biopsy taken by curettage), clinical phase I-II study; type: in vivo, healthy postmenopausal female volunteers; conditions: 30, 60, 90 mg daily, 3 months
Procedure: as §1, §2

[4] = Tolerability in the clinical studies; type: in vivo, posmenopausal women
Procedure: as §1
Based on the present data, the optimal clinical dose is expected to be higher than 25 mg daily and lower than 100 mg daily. A particularly preferable daily dose is found in the range 30 to 90 mg. […] In addition, ospemifene decreases total and LDL cholesterol, increases HDL cholesterol, and prevents osteoporosis and early stage breast cancer.

[5] = tested on: urogenital atrophy
Procedure: In this study, raloxifene (60 mg/day) or ospemifene at different doses were given to elderly female volunteers for a period of 3 months.
77 were treated with 25-30 mg, 78 with 50-60 mg, 78 with 90-100 mg and 8 with 200 mg daily dose of ospemifene. In the control groups, 47 were treated with placebo and 29 with raloxifene. […] The symptoms include both vaginal and urinary symptoms such as vaginal discomfort with irritation, itching, burning, smarting, postcoital bleeding, vulvar itching and/or malodorous discharge and leukorrhea.

| SMILES | Change in maturity index for superficial cells (MI3 mean) ([1]; 30 mg daily perorally) | Change in maturity index for parabasal cells (MI1 mean) ([1]; 30 mg daily perorally) | Change in maturity index for superficial cells (MI3 mean) ([1]; 60 mg daily perorally) | Change in maturity index for parabasal cells (MI1 mean) ([1]; 60 mg daily perorally) | Change in maturity index for superficial cells (MI3 mean) ([1]; 90 mg daily perorally) | Change in maturity index for parabasal cells (MI1 mean) ([1]; 90 mg daily perorally) | estrogenic effect in the cervical smear ([1]; 30, 60, 90 mg daily, 3 months) | pathological changes in cervical smear samples ([1]; 30, 60, 90 mg daily, 3 months) | increase in the karyopyknosis index for superficial cells ([1]; individual cases, all ospemifene groups (30, 60, 90 mg daily), all cases except one) | change from baseline to post-treatment in the karyopyknosis index for superficial cells [1] | increase in the karyopyknosis index for superficial cells ([1]; one case in the 90 mg group) | increase in the thickness of the endometrium (average) ([2]; 30 mg daily) [mm] | increase in the thickness of the endometrium (average) ([2]; 60 mg daily) [mm] | increase in the thickness of the endometrium (average) ([2]; 90 mg daily) [mm] | thickness of the endometrium, measured values ([2]; all measured values, 30, 60, 90 mg daily) | malignant findings in the endometrium [3] | estrogenic effect on endometrial histology ([3]; clearly weaker than with estrogen replacement therapy) | tolerability [4] | vaginal atrophy ([5]; 30, 60 and 90 mg daily, 3 months, elderly female volunteers) | symptoms associated with urogenital atrophy (vaginal and urinary) ([5]; spontaneous reports of some subjects, 25-200 mg daily, 241 women treated) |
| --- | --- | --- | --- | --- | --- | --- | --- | --- | --- | --- | --- | --- | --- | --- | --- | --- | --- | --- | --- | --- |
| OCCOc1ccc(/C(=C(/CCCl)c2ccccc2)c2ccccc2)cc1 [Ospemifene, (deaminohydroxy)toremifene] | +12.4 | -40 | +5.5 | -26 | +12.5 | -48 | weak but statistically significant estrogenic effect | No pathological changes | < 40 | slight increases | 45 | 0.2 | 0.5 | 0.5 | smaller than 8 mm | no malignant findings | weak estrogenic effect | excellent tolerability | significant decrease in vaginal atrophy | alleviation of the symptoms associated with urogenital atrophy |
| O=C(c1ccc(OCCN2CCCCC2)cc1)c1c(-c2ccc(O)cc2)sc2cc(O)ccc12 [Raloxifene, reference compound] |  |  | -0.3 | -2 |  |  |  |  |  | no one in the raloxifene group (Fig. 1D) had a significant change |  |  |  |  |  |  |  |  |  |  |
